As a reminder, the DC50 is the midpoint of the concentration-degradation curve. One may read the Dmax as the greatest extent of degradation seen.

For test [1], the target named is T1, IRAK4 (Homo sapiens, UniProt Q9NWZ3).
T1 construct: endogenous in cells; host or cells: Karpas299
T1 sequence (Q9NWZ3 1-460): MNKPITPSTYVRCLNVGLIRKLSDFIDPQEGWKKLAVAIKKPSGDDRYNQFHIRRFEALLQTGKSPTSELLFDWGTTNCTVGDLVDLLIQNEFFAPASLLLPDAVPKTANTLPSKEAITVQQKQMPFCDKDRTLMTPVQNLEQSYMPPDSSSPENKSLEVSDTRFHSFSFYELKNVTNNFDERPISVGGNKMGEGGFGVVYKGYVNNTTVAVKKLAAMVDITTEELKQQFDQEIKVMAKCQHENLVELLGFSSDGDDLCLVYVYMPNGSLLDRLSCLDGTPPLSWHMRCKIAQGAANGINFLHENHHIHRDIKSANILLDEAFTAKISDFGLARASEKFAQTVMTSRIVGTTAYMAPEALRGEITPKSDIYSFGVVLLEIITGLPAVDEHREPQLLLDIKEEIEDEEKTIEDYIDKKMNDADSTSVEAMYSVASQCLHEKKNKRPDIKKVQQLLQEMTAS
Description: IRAK4 Degradation Assay with Human Serum (Karpas299, HTRF/TR-FRET). In kind it is cell-based. The note with it: Karpas-299 in human serum, 24 hrs treatment; for DC50: read-out: IRAK4 degradtion with human serum assay DC50; for Dmax: read-out: IRAK4 degradtion with human serum assay Dmax (%). In a few lines:
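Remaining IRAK4 measured by TR-FRET immunoassay on lysates of Karpas299 cells exposed 24 h to compound dilution series in human serum AB. DC50 derived from a Hill-slope fit of % degradation versus concentration.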
Background: Time-resolved FRET reads energy transfer from a long-lived donor to a nearby acceptor.

In test [2] the target is T1, IRAK4. Description: IRAK4 Degradation Assay (Karpas299, HTRF/TR-FRET). In kind it is cell-based. The note with it: Karpas-299 cells, 24 h treatment; for Dmax: maximum percentage of degradation, read-out: IRAK4 in Karpas-299 (24 h) Dmax (%); for DC50: read-out: IRAK4 in Karpas-299 (24 h) DC50. In a few lines: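 Compound potency as DC50 (IC50) came from four-parameter fits of percent IRAK4 degradation. IRAK4 was measured by HTRF (665/620 nm) in lysates of Karpas299 cells seeded at 0.2 million per well. Cells had been treated with compound dilutions for 5 or 24 h.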

For `CC(C)(O)c1cc2nn([C@H]3CC[C@H](N4CCN(CCc5cc(F)c([C@H]6CCC(=O)NC6=O)c(F)c5)CC4)CC3)cc2cc1NC(=O)c1ccc2cc(Br)cnn12` [Example 414, 3-bromo-N-(2-((1R,4r)-4-(4-(4-((R)-2,6-dioxopiperidin-3-yl)-3,5-difluorophenethyl)piperazin-1-yl)cyclohexyl)-6-(2-hydroxypropan-2-yl)-2H-indazol-5-yl)pyrrolo[1,2-b]pyridazine-7-carboxamide], the DC50 came out at 439 nM at IRAK4 [1] and 1.5 nM at IRAK4 [2]. In addition, the Dmax on IRAK4 [1] was 97%; on IRAK4 [2], 96%.
The corresponding values for `CC(C)(O)c1cc2nn([C@H]3CC[C@H](N4CCN(C(=O)C5CCN(c6ccc7c(c6)C(=O)N(C6CCC(=O)NC6=O)C7=O)CC5)CC4)CC3)cc2cc1NC(=O)c1ccc2cc(C#N)cnn12` (stereo partly shown) [Example 429, 3-cyano-N-(2-((1r,4r)-4-(4-(1-(2-(2,6-dioxopiperidin-3-yl)-1,3-dioxoisoindolin-5-yl)piperidine-4-carbonyl)piperazin-1-yl)cyclohexyl)-6-(2-hydroxypropan-2-yl)-2H-indazol-5-yl)pyrrolo[1,2-b]pyridazine-7-carboxamide] are 32 nM, 1 nM, 94% and 97%.
The like results for `CC(C)(O)c1cc2nn([C@H]3CC[C@H](N4CCN(C(=O)[C@@H]5CCN(c6ccc(N7CCC(=O)NC7=O)cc6)C5)CC4)CC3)cc2cc1NC(=O)c1ccc2cc(C#N)cnn12` [Example 263, 3-cyano-N-(2-((1R,4r)-4-(4-((R)-1-(4-(2,4-dioxotetrahydropyrimidin-1(2H)-yl)phenyl)pyrrolidine-3-carbonyl)piperazin-1-yl)cyclohexyl)-6-(2-hydroxypropan-2-yl)-2H-indazol-5-yl)pyrrolo[1,2-b]pyridazine-7-carboxamide] were, in that order, 15 nM, 2.6 nM, 99% and 96%.
In the case of `CC(C)(O)c1cc2nn([C@H]3CC[C@H](N4CCN(CCNc5cccc6c5C(=O)N(C5CCC(=O)NC5=O)C6=O)CC4)CC3)cc2cc1NC(=O)c1ccc2cc(C#N)cnn12` (stereo partly shown) [Example 437, 3-cyano-N-(2-((1r,4r)-4-(4-(2-((2-(2,6-dioxopiperidin-3-yl)-1,3-dioxoisoindolin-4-yl)amino)ethyl)piperazin-1-yl)cyclohexyl)-6-(2-hydroxypropan-2-yl)-2H-indazol-5-yl)pyrrolo[1,2-b]pyridazine-7-carboxamide], at IRAK4 [1], the half-maximal degradation concentration (DC50) stood at 9.4 nM and the Dmax turned out to be 101%. Further, on IRAK4 [2], the Dmax worked out at 99% and the DC50 was found to be 4.7 nM.
As to `CC(C)(O)c1cc2nn([C@H]3CC[C@H](N4CCN(CCc5cc(F)c([C@H]6CCC(=O)NC6=O)c(F)c5)CC4=O)CC3)cc2cc1NC(=O)c1ccc2cc(C#N)cnn12` [Example 334, 3-cyano-N-(2-((1R,4r)-4-(4-(4-((R)-2,6-dioxopiperidin-3-yl)-3,5-difluorophenethyl)-2-oxopiperazin-1-yl)cyclohexyl)-6-(2-hydroxypropan-2-yl)-2H-indazol-5-yl)pyrrolo[1,2-b]pyridazine-7-carboxamide], on IRAK4 [1], the DC50 came to 6.3 nM and the Dmax turned out to be 94%. On IRAK4 [2], the Dmax worked out at 95% and the DC50 was 0.6 nM.
As for `CC(C)(O)c1cc2nn(C3CCC4(CC3)CCN(C3CN(c5cc(F)c([C@H]6CCC(=O)NC6=O)c(F)c5)C3)CC4)cc2cc1NC(=O)c1ccc2cc(C#N)cnn12` [Example 428, (R)-3-cyano-N-(2-(3-(1-(4-(2,6-dioxopiperidin-3-yl)-3,5-difluorophenyl)azetidin-3-yl)-3-azaspiro[5.5]undecan-9-yl)-6-(2-hydroxypropan-2-yl)-2H-indazol-5-yl)pyrrolo[1,2-b]pyridazine-7-carboxamide], the 50% degradation concentration (DC50) at IRAK4 [1] was 33 nM; at IRAK4 [2], 2.9 nM. The Dmax at IRAK4 [1] was 94%; at IRAK4 [2], 93%.
The like results for `COC[C@H]1CN(C2CN(c3cc(F)c([C@H]4CCC(=O)NC4=O)c(F)c3)C2)CCN1[C@H]1CC[C@H](n2cc3cc(NC(=O)c4ccc5cc(C#N)cnn45)c(C(C)(C)O)cc3n2)CC1` [Example 323, 3-cyano-N-(2-((1R,4r)-4-((R)-4-(1-(4-((R)-2,6-dioxopiperidin-3-yl)-3,5-difluorophenyl)azetidin-3-yl)-2-(methoxymethyl)piperazin-1-yl)cyclohexyl)-6-(2-hydroxypropan-2-yl)-2H-indazol-5-yl)pyrrolo[1,2-b]pyridazine-7-carboxamide] were, in that order, 14 nM, 2.1 nM, 98% and 94%.
For `CC(C)(O)c1cc2nn([C@H]3CC[C@H](N4CCN(CC5CCN(c6ccc7c(c6)CN(C6CCC(=O)NC6=O)C7=O)CC5)CC4)CC3)cc2cc1NC(=O)c1ccc2cc(C#N)cnn12` (stereo partly shown) [Example 353, 3-cyano-N-(2-((1r,4r)-4-(4-((1-(2-(2,6-dioxopiperidin-3-yl)-1-oxoisoindolin-5-yl)piperidin-4-yl)methyl)piperazin-1-yl)cyclohexyl)-6-(2-hydroxypropan-2-yl)-2H-indazol-5-yl)pyrrolo[1,2-b]pyridazine-7-carboxamide], the DC50 on IRAK4 [1] was determined as 3.5 nM; at IRAK4 [2] it was 0.8 nM. The Dmax on IRAK4 [1] was 88%; at IRAK4 [2] it was 95%.
As for `CC(C)(O)c1cc2nn([C@H]3CC[C@H](N4CCN([C@H]5C[C@@H](c6ccc(N[C@H]7CCC(=O)NC7=O)cc6)C5)CC4)CC3)cc2cc1NC(=O)c1ccc2cc(C#N)cnn12` [Example 273, 3-cyano-N-(2-((1R,4r)-4-(4-((1R,3S)-3-(4-(((S)-2,6-dioxopiperidin-3-yl)amino)phenyl)cyclobutyl)piperazin-1-yl)cyclohexyl)-6-(2-hydroxypropan-2-yl)-2H-indazol-5-yl)pyrrolo[12-b]pyridazine-7-carboxamide], the DC50 on IRAK4 [1] worked out at 9.3 nM; on IRAK4 [2], 5 nM. For the same molecule, the Dmax on IRAK4 [1] stood at 98%; at IRAK4 [2], 95%.
As to `CC(C)(O)c1cc2nn([C@H]3CC[C@H](N4CCN(C[C@H]5C[C@@H](c6cc(F)c([C@H]7CCC(=O)NC7=O)c(F)c6)C5)CC4)CC3)cc2cc1NC(=O)c1ccc2cc(C#N)cnn12` [Example 383, 3-cyano-N-(2-((1R,4r)-4-(4-(((1S,3S)-3-(4-((R)-2,6-dioxopiperidin-3-yl)-3,5-difluorophenyl)cyclobutyl)methyl)piperazin-1-yl)cyclohexyl)-6-(2-hydroxypropan-2-yl)-2H-indazol-5-yl)pyrrolo[1,2-b]pyridazine-7-carboxamide], on IRAK4 [1], the DC50 is 5.8 nM and the Dmax came out at 93%. Also, on IRAK4 [2], the Dmax is 94% and the DC50 came to 1.6 nM.
With `CC(C)(O)c1cc2nn([C@H]3CC[C@H](N4CCN(C[C@@H]5CCN(c6cc(F)c([C@H]7CCC(=O)NC7=O)c(F)c6)C5)CC4)CC3)cc2cc1NC(=O)c1ccc2cc(C#N)cnn12` [Example 392, 3-cyano-N-(2-((1S,4r)-4-(4-(((S)-1-(4-((R)-2,6-dioxopiperidin-3-yl)-3,5-difluorophenyl)pyrrolidin-3-yl)methyl)piperazin-1-yl)cyclohexyl)-6-(2-hydroxypropan-2-yl)-2H-indazol-5-yl)pyrrolo[1,2-b]pyridazine-7-carboxamide], at IRAK4 [1], the DC50 was determined as 11 nM and the Dmax was found to be 98%. For the same molecule, on IRAK4 [2], the Dmax was 97% and the DC50 is 0.9 nM.
The like results for `CC(C)(O)c1cc2nn([C@H]3CC[C@H](N4CCN(C(=O)[C@@H]5CCN(c6cc(F)c(N7CCC(=O)NC7=O)c(F)c6)C5)CC4)CC3)cc2cc1NC(=O)c1ccc2cc(C#N)cnn12` [Example 106, 3-cyano-N-(2-((1R,4r)-4-(4-((R)-1-(4-(2,4-dioxotetrahydropyrimidin-1(2H)-yl)-3,5-difluorophenyl)pyrrolidine-3-carbonyl)piperazin-1-yl)cyclohexyl)-6-(2-hydroxypropan-2-yl)-2H-indazol-5-yl)pyrrolo[1,2-b]pyridazine-7-carboxamide] were, in that order, 57 nM, 97%, 97% and 2.4 nM.
With `Cc1nc(C2CCC(=O)NC2=O)ccc1N1CCC(N2CCN(C[C@H]3CC[C@H](n4cc5cc(NC(=O)c6ccc7cc(C#N)cnn67)c(C(C)(C)O)cc5n4)CC3)CC2)CC1` (stereo partly shown) [Example 420, 3-cyano-N-(2-((1r,4r)-4-((4-(1-(6-(2,6-dioxopiperidin-3-yl)-2-methylpyridin-3-yl)piperidin-4-yl)piperazin-1-yl)methyl)cyclohexyl)-6-(2-hydroxypropan-2-yl)-2H-indazol-5-yl)pyrrolo[1,2-b]pyridazine-7-carboxamide], on IRAK4 [1], the 50% degradation concentration (DC50) turned out to be 17 nM and the Dmax was 96%. Also, at IRAK4 [2], the Dmax amounted to 97% and the DC50 was 2.8 nM.

These data come from US20250195513A1, “DEGRADATION OF IRAK4 BY CONJUGATION OF IRAK4 INHIBITORS WITH E3 LIGASE LIGAND AND METHODS OF USE” (BeiGene, Ltd., priority 2022, published 2025).
